Test results taken from patent US11053204B2, “Pyrimidinyloxy benzene derivatives as herbicides” (FMC Corporation, priority 2015, dated 2021).

What was measured:
Format in all cases: in vivo
kochia (Kochia scoparia) [1] = assay: Test C preemergence, plant response rating
[2] = test system: Italian ryegrass (Lolium multiflorum); assay: Test A postemergence, visual injury rating; conditions: 0 is no effect, 100 is complete control; for Ryegrass, Italian plant response rating: 0 to 100 scale, approximately 10 days
Procedure, shortened: (§1)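 Visual injury scored 0–100 (100 = complete control) against untreated controls about 10 days after treatment in a greenhouse. Test chemicals, formulated with surfactant in non-phytotoxic solvent, were sprayed on soil preemergence or on 2-10 cm, one- to two-leaf plants postemergence.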

[3] = test system: barnyardgrass (Echinochloa crus-galli); assay: Test A postemergence, visual injury rating; conditions: 0 is no effect, 100 is complete control
Procedure, shortened: as §1

corn (Zea mays) = assay: Test A postemergence, visual injury rating; conditions: 0 is no effect, 100 is complete control
Procedure, shortened: as §1

[4] = test system: wheat (Triticum aestivum); assay: Test A postemergence, visual injury rating; conditions: 0 is no effect, 100 is complete control; for Wheat plant response rating: 0 to 100 scale, approximately 10 days
Procedure, shortened: as §1

[5] = test system: galium (catchweed bedstraw, Galium aparine); assay: Test A postemergence, visual injury rating; conditions: 0 is no effect, 100 is complete control
Procedure, shortened: as §1

[6] = test system: ragweed (common ragweed, Ambrosia elatior); assay: Test A postemergence, visual injury rating; conditions: 0 is no effect, 100 is complete control; for Ragweed plant response rating: 0 to 100 scale, approximately 10 days
Procedure, shortened: as §1

[7] = test system: pigweed (Amaranthus retroflexus); assay: Test A postemergence, visual injury rating; conditions: 0 is no effect, 100 is complete control; for Pigweed plant response rating: 0 to 100 scale, approximately 10 days
Procedure, shortened: as §1

[8] = test system: blackgrass (Alopecurus myosuroides); assay: Test A postemergence, visual injury rating; conditions: 0 is no effect, 100 is complete control
Procedure, shortened: as §1

[9] = test system: giant foxtail (Setaria faberii); assay: Test A postemergence, visual injury rating; conditions: 0 is no effect, 100 is complete control
Procedure, shortened: as §1

[10] = test system: barnyardgrass (Echinochloa crus-galli); assay: Test B flooded paddy test, plant response rating; conditions: 250 g ai/ha; Flood; scale of 0 to 100 where 0 is no effect and 100 is complete control; 13 to 15 days
Procedure, shortened: (§2)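 Test compounds are applied straight into paddy water held 3 cm above the soil surface, with that flood maintained for the whole test. After 13 to 15 days in the greenhouse, each species is scored visually relative to controls.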

[11] = test system: ducksalad (Heteranthera limosa); assay: Test B flooded paddy test, plant response rating; conditions: 250 g ai/ha; Flood; scale of 0 to 100 where 0 is no effect and 100 is complete control; 13 to 15 days
Procedure, shortened: as §2

rice (Oryza sativa) = assay: Test B flooded paddy test, plant response rating; conditions: 250 g ai/ha; Flood; scale of 0 to 100 where 0 is no effect and 100 is complete control; 13 to 15 days
Procedure, shortened: as §2

[12] = test system: sedge, umbrella (small-flower umbrella sedge, Cyperus difformis); assay: Test B flooded paddy test, plant response rating; conditions: 250 g ai/ha; Flood; scale of 0 to 100 where 0 is no effect and 100 is complete control; 13 to 15 days
Procedure, shortened: as §2

kochia (Kochia scoparia) [13] = assay: Test A postemergence, visual injury rating; conditions: 0 is no effect, 100 is complete control; for Kochia plant response rating: 125 g ai/ha, 0 to 100 scale, approximately 10 days; for Kochia plant response rating (0 to 100 scale): 500 g ai/ha
Procedure, shortened: as §1

[14] = test system: surinam grass (Brachiaria decumbens); assay: Test C postemergence, plant response rating; conditions: for Surinam Grass plant response rating: scale 0 to 100 (0 no effect, 100 complete control)
Procedure, shortened: (§3)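 Visual injury score, 0 = no effect, 100 = complete control, assigned against untreated controls after 13 to 15 d in the greenhouse. Compounds were applied in a surfactant-containing non-phytotoxic solvent mix, preemergence to seeded loam/sand or silt loam soil, or postemergence to 1- to 4-leaf plants (2 to 18 cm).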

[15] = test system: johnsongrass (Sorghum halepense); assay: Test C postemergence, plant response rating; conditions: for Johnsongrass plant response rating: scale 0 to 100 (0 no effect, 100 complete control)
Procedure, shortened: as §3

[16] = test system: wild poinsettia (Euphorbia heterophylla); assay: Test C postemergence, plant response rating; conditions: for Poinsettia, Wild plant response rating: scale 0 to 100 (0 no effect, 100 complete control)
Procedure, shortened: as §3

| SMILES | Plant response rating, Kochia (kochia (Kochia scoparia) [1]; 16 g ai/ha, scale 0 to 100) | Plant response rating, Kochia (kochia (Kochia scoparia) [1]; 31 g ai/ha, scale 0 to 100) | Plant response rating, Kochia (kochia (Kochia scoparia) [1]; 62 g ai/ha, scale 0 to 100) | Plant response rating, Kochia (kochia (Kochia scoparia) [1]; 125 g ai/ha, scale of 0 to 100) | Ryegrass, Italian plant response rating (0 to 100 scale) ([2]; 500 g ai/ha) | Barnyardgrass plant response rating (0 to 100 scale) ([3]; 125 g ai/ha) | Barnyardgrass plant response rating (0 to 100 scale) ([3]; 500 g ai/ha) | Corn plant response rating (0 to 100 scale) (corn (Zea mays); 125 g ai/ha) | Corn plant response rating (0 to 100 scale) (corn (Zea mays); 500 g ai/ha) | Wheat plant response rating (0 to 100 scale) ([4]; 500 g ai/ha) | Galium plant response rating (0 to 100 scale) ([5]; 125 g ai/ha) | Galium plant response rating (0 to 100 scale) ([5]; 500 g ai/ha) | Ragweed plant response rating (0 to 100 scale) ([6]; 500 g ai/ha) | Pigweed plant response rating (0 to 100 scale) ([7]; 500 g ai/ha) | Blackgrass plant response rating (0 to 100 scale) ([8]; 125 g ai/ha) | Blackgrass plant response rating (0 to 100 scale) ([8]; 500 g ai/ha) | Foxtail, Giant plant response rating (0 to 100 scale) ([9]; 125 g ai/ha) | Foxtail, Giant plant response rating (0 to 100 scale) ([9]; 500 g ai/ha) | Plant response rating, Barnyardgrass [10] | Plant response rating, Ducksalad [11] | further results |
| --- | --- | --- | --- | --- | --- | --- | --- | --- | --- | --- | --- | --- | --- | --- | --- | --- | --- | --- | --- | --- | --- |
| C=C(Br)COC(=O)c1c(Br)cccc1Oc1ncc(Cl)cn1 [Compound 61] | 0 | 5 | 5 | 30 | 80 | 100 | 100 | 20 | 40 | 30 | 60 | 100 | 30 | 100 | 30 | 100 | 60 | 100 | 20 | 100 | Ryegrass, Italian plant response rating (0 to 100 scale) ([2]; 125 g ai/ha): 20; Wheat plant response rating (0 to 100 scale) ([4]; 125 g ai/ha): 0; Ragweed plant response rating (0 to 100 scale) ([6]; 125 g ai/ha): 10; Pigweed plant response rating (0 to 100 scale) ([7]; 125 g ai/ha): 40; Plant response rating, Rice (rice (Oryza sativa)): 0; Plant response rating, Sedge, Umbrella [12]: 100 |
| CCCC(=O)c1c(Br)cccc1Oc1ncc(Cl)cn1 [Compound 75] | 0 | 50 | 90 | 100 | 70 | 90 | 100 | 80 | 90 | 70 | 80 | 100 | 40 | 100 | 40 | 60 | 90 | 100 | 40 | 95 | Ryegrass, Italian plant response rating ([2]; 125 g ai/ha): 40; Wheat plant response rating ([4]; 125 g ai/ha): 20; Ragweed plant response rating ([6]; 125 g ai/ha): 30; Pigweed plant response rating ([7]; 125 g ai/ha): 100; Kochia plant response rating (kochia (Kochia scoparia) [13]): 100; Kochia plant response rating (0 to 100 scale) (kochia (Kochia scoparia) [13]): 100; Plant response rating, Rice (rice (Oryza sativa)): 35; Plant response rating, Sedge, Umbrella [12]: 95; Plant response rating, Surinam Grass ([14]; 16 g ai/ha, scale 0 to 100): 10; Plant response rating, Surinam Grass ([14]; 31 g ai/ha, scale 0 to 100): 15; Surinam Grass plant response rating ([14]; 62 g ai/ha): 20; Surinam Grass plant response rating ([14]; 125 g ai/ha): 20; Plant response rating, Johnsongrass ([15]; 16 g ai/ha, scale 0 to 100): 5; Plant response rating, Johnsongrass ([15]; 31 g ai/ha, scale 0 to 100): 10; Johnsongrass plant response rating ([15]; 62 g ai/ha): 10; Johnsongrass plant response rating ([15]; 125 g ai/ha): 70; Plant response rating, Poinsettia, Wild ([16]; 16 g ai/ha, scale 0 to 100): 65; Plant response rating, Poinsettia, Wild ([16]; 31 g ai/ha, scale 0 to 100): 70; Poinsettia, Wild plant response rating ([16]; 62 g ai/ha): 80; Poinsettia, Wild plant response rating ([16]; 125 g ai/ha): 80 |
| CCCCC(=O)c1c(Br)cccc1Oc1ncc(Cl)cn1 [Compound 79] | 5 | 90 | 90 | 100 | 90 | 90 | 100 | 80 | 90 | 30 | 90 | 100 | 40 | 100 | 50 | 90 | 80 | 80 | 60 | 90 | Ryegrass, Italian plant response rating ([2]; 125 g ai/ha): 90; Wheat plant response rating ([4]; 125 g ai/ha): 20; Ragweed plant response rating ([6]; 125 g ai/ha): 30; Pigweed plant response rating ([7]; 125 g ai/ha): 100; Kochia plant response rating (kochia (Kochia scoparia) [13]): 100; Kochia plant response rating (0 to 100 scale) (kochia (Kochia scoparia) [13]): 100; Plant response rating, Rice (rice (Oryza sativa)): 45; Plant response rating, Sedge, Umbrella [12]: 100; Plant response rating, Surinam Grass ([14]; 16 g ai/ha, scale of 0 to 100): 25; Plant response rating, Surinam Grass ([14]; 31 g ai/ha, scale 0 to 100): 25; Surinam Grass plant response rating ([14]; 125 g ai/ha): 35; Plant response rating, Johnsongrass ([15]; 16 g ai/ha, scale of 0 to 100): 40; Plant response rating, Johnsongrass ([15]; 31 g ai/ha, scale 0 to 100): 65; Johnsongrass plant response rating ([15]; 62 g ai/ha): 60; Johnsongrass plant response rating ([15]; 125 g ai/ha): 85; Plant response rating, Poinsettia, Wild ([16]; 16 g ai/ha, scale of 0 to 100): 30; Plant response rating, Poinsettia, Wild ([16]; 31 g ai/ha, scale 0 to 100): 75; Poinsettia, Wild plant response rating ([16]; 62 g ai/ha): 80; Poinsettia, Wild plant response rating ([16]; 125 g ai/ha): 85 |
